From paper PMC5248581 (PeerJ, 2017)
“Also recorded” adds a separate entry of the source. Where two headings read alike, the source gives them in different places. Residues, ends and D or L forms follow the SMILES beside them.

Experiments:
[1] = target: T1, human isolated umbilical vein (BK B2R; histamine H1R) (Homo sapiens, UniProt P30411)
T1 sequence (P30411 1-391): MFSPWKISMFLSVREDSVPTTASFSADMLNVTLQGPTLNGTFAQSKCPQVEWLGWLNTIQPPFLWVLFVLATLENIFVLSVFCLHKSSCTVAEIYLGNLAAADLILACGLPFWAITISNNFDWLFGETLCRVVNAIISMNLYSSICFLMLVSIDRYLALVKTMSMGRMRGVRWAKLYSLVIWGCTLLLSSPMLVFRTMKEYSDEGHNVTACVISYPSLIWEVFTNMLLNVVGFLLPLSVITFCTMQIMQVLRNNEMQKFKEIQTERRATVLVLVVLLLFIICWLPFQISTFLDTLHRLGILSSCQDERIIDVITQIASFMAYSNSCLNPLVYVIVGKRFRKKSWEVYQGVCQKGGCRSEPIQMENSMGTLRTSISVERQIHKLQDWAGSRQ
Excerpt: The institutional research ethics board (CHU de Québec) approved the anonymous use of human umbilical cord segments obtained after elective cesarean section deliveries (file number: 2012-323). Informed written consent was obtained from mothers.
(§1) Results are presented as means ± s.e.m. Radioligand binding data were fitted by nonlinear regression to a one-site competition equation using a least-square method (Prism 5.0; GraphPad Software Inc., San Diego, CA, USA) and IC50 values calculated from this procedure. The same computer program was used to draw concentration-effect curves (least square fitting of sigmoidal dose–response equation with variable slope) and to derive contractile EC50 values. Data describing baseline values of heart rate and mean arterial blood pressure and hypotensive responses to peptides in anesthetized rats were assessed by using one-way analysis of variance (ANOVA) followed by the Dunnett’s test (repeated comparison with a common control). The effects of drugs on the hypotensive responses to each dose of MK were assessed by using ANOVA followed by the Dunnett’s test.

[2] = LC-MS of MK incubated with human umbilical vein ring; format: in vitro ADME; conditions: 37 °C; for fragment generated from MK: MK 1 µM in Krebs with umbilical vein ring, 5 or 15 min, LC-MS, duplicate; for increase of fragment ion intensity on reaction with tissue: vs. contaminant in commercial MK, MK 1 µM
Experimental: Synthetic MK (1 µM) was submitted to digestion in 2 ml of sterile-filtered Krebs solution in the presence of a freshly prepared ring of human umbilical vein (wet weight 25–37 mg). The tubes containing these materials were incubated at 37 °C for 5 or 15 min; the tissues were then removed and five volumes of cold ethanol (10 ml) were added to each tube. The tubes were incubated for 1 h on ice, centrifuged at 10,000 g to remove precipitated proteins and the kinin-containing supernatants were collected (procedure previously validated, [Raymond et al., 1995]). The supernatants were then completely evaporated to dryness in a Speedvac system and reconstituted in a small volume of water. Peptides were desalted on stage tip (C18), vacuum dried and then resuspended into 0.1% formic acid. One hundred fmol of each sample (starting MK quantity) was analyzed by mass spectrometry.
Mass spectrometry: peptide samples were separated by online reversed-phase (RP) nanoscale capillary liquid chromatography (nanoLC) and analyzed by electrospray mass spectrometry (ES MS/MS). The experiments were performed with a Ekspert NanoLC425 (Eksigent) coupled to a 5600+ mass spectrometer (AB Sciex, Framingham, MA, USA) equipped with a nanoelectrospray ion source. Peptide separation took place on a picofrit column (Reprosil 3u, 120A C18, 15 cm × 0.075 mm internal diameter). Peptides were eluted with a linear gradient from 5–35% solvent B (acetonitrile, 0.1% formic acid) in 35 min, at 300 nL/min. Mass spectra were acquired using a data dependent acquisition mode using Analyst software version 1.7. […] Dynamic exclusion was set for a period of 3 s and a tolerance of 100 ppm
Database searching: MGF peak list files were created using Protein Pilot version 5.0 software (Sciex) utilizing the Paragon and Progroup algorithms. MGF sample files were then analyzed using Mascot (Matrix Science, London, UK; version 2.5.1).
Mascot was set up to search the MK sequence assuming that the digestion enzyme was non-specific. Mascot was searched with a fragment ion mass tolerance of 0.100 Da and a parent ion tolerance of 0.100 Da. Deamidation of asparagine and glutamine and oxidation of methionine were specified in Mascot as variable modifications. Scaffold (version Scaffold_4.7.1; Proteome Software Inc., Portland, OR, USA) was used to validate MS/MS based peptide and protein identifications.
Data processing: Peak View 1.2.0.1 (Sciex) was used to extract the specific precursor masses and calculate the area under the curve. Extracted ion chromatoram (XIC) were generated from the TOF MS using a peak width of 0.05.

male Sprague-Dawley rats = conditions: for Basal mean arterial blood pressure after pre-treatment / Basal heart rate after pre-treatment: 15 min after i.v., enalaprilat 0.1 mg/kg n=6, icatibant 25 µg/kg n=6, pyrilamine 5 mg/kg n=16, means ± s.e.m.; for Basal mean arterial blood pressure after pre-treatment: control 96.5 ± 2.5; for Basal heart rate after pre-treatment: control 351 ± 10, * P < 0.01 vs control; for effect of pretreatment on hypotensive effect of MK: enalaprilat 0.1 mg/kg, icatibant 25 µg/kg, 15 min before MK
Experimental: All surgical and experimental procedures were reviewed and approved by the Animal Care and Handling Committee of Laval University, in accordance with the Canadian Council on Animal Care (file no. 2012-223). Experiments were performed on male Sprague-Dawley rats (300–375 g) purchased from Charles River Laboratories (St-Constant, Qc, Canada). Only animals of the male gender have been studied to be consistent with related and recently published data ([Jean et al., 2016a]). The rats were housed in a temperature-controlled room (22 ± 1 °C) on a 12 h/12 h light-dark cycle (lights on at 0600) and had free access to normal chow diet and tap water. They were allowed to acclimate to their environmental conditions for one week prior to being studied. At the end of the acclimation period, the rats were anesthetised with sodium pentobarbital (50 mg kg^−1, i.p., supplemented as required) and had one catheter implanted into the right jugular vein (for intravenous ( i.v.) injection) and one into the left femoral artery (for direct and continuous measurement of blood pressure and heart rate as previously described, [Jean et al., 2016a]). In some experiments, a miniaturized pulsed Doppler flow probe ([Haywood et al., 1981]) was implanted around the distal abdominal aorta (below the level of the ileocaecal artery) through a midline abdominal incision to monitor changes in hindquarter hemodynamic, according to the method previously developed by [Gardiner & Bennett (1988)] and as previously described ([Bachelard et al., 1992]; [Jean et al., 2016a]). Experiments started at least 30 min following the end of surgery in anesthetised rats.
Baseline heart rate and phasic and mean arterial blood pressure were recorded over a period of 15 min in anesthetized rats. […] Peptides were dissolved in isotonic saline (0.9% NaCl) containing 0.1% BSA to prevent the adsorption of peptide to the glassware and plastic surfaces. All i.v. injections were given as 100 µl boluses which were washed in with a further 100 µl of saline (the dead space of the catheter). Only one peptide was tested per group of rats and each injection started with saline-BSA 0.1% followed by the lowest dose of peptide. The next dose was administered once all recorded cardiovascular parameters had returned to baseline after the previous injection (usually 2–10 min). At the end of the experiments each animal was euthanized with an overdose of sodium pentobarbital (240 mg/kg, i.v.).
In these experiments, enalaprilat was intravenously administered as bolus (0.1 mg/kg, 0.1 ml) following a 10 min period of baseline measurements of heart rate and blood pressure. Fifteen minutes later, a dose–response curve to MK was obtained, as described above. […] In these experiments, icatibant was intravenously administered as bolus (25 µg/kg, 0.1 ml) 15 min before the i.v. injection of increasing doses of MK, as above. […] In these experiments, pyrilamine was intravenously administered as bolus (5 mg/kg, 0.1 ml) 15 min before the i.v. injection of increasing doses of MK, as above.
as §1, with “control).” for “control). The effects of drugs on the hypotensive responses to each dose of MK were assessed by using ANOVA followed by the Dunnett’s test.”

## CC(C)C[C@H](NC(=O)[C@H]1O[C@@H]1C(=O)O)C(=O)NCCCCN=C(N)N [E-64]
[1]; inhibitor 30 min before MK
  effect of protease/peptidase inhibitor on contractile potency of MK: failed to change the concentration-effect curve of MK

## O=C([O-])CN(CCN(CC(=O)[O-])CC(=O)[O-])CC(=O)[O-].[Ca+2].[Na+].[Na+] [EDTA calcium disodium]
[1]
  effect of protease/peptidase inhibitor on contractile potency of MK: The same applied

## N=C(N)NCCC[C@H](NC(=O)[C@H](Cc1ccccc1)NC(=O)[C@@H]1CCCN1C(=O)[C@H](CO)NC(=O)[C@H](Cc1ccccc1)NC(=O)CNC(=O)[C@@H]1CCCN1C(=O)[C@@H]1CCCN1C(=O)[C@H](CCCNC(=N)N)NC(=O)[C@@H]1CCCN1C(=O)CN)C(=O)O [Gly-Pro-BK] (H-GPRPPGFSPFR-OH)
[2]
  fragment generated from MK: evidenced in a time-dependent manner; also recorded: metabolite that accumulates
  increase of fragment ion intensity on reaction with tissue: 3-4 -fold

## N=C(N)NCCC[C@H](NC(=O)[C@H](Cc1ccccc1)NC(=O)[C@@H]1CCCN1C(=O)[C@H](CO)NC(=O)[C@H](Cc1ccccc1)NC(=O)CNC(=O)[C@@H]1CCCN1C(=O)[C@@H]1CCCN1C(=O)[C@H](CCCNC(=N)N)NC(=O)[C@@H]1CCCN1C(=O)CNC(=O)[C@@H](N)CCCCN)C(=O)O [Lys-Gly-Pro-BK] (H-KGPRPPGFSPFR-OH)
[2]
  fragment generated from MK: evidenced in a time-dependent manner; also recorded: major C-terminal metabolite
  increase of fragment ion intensity on reaction with tissue: 3-4 -fold

## C[C@H](N[C@@H](CCc1ccccc1)C(=O)O)C(=O)N1CCC[C@H]1C(=O)O [enalaprilat]
Male Sprague-Dawley rats
  Basal mean arterial blood pressure after pre-treatment: 94.9 ± 4.6
  Basal heart rate after pre-treatment: slight but significant increase in basal HR
Male Sprague-Dawley rats; listed as Enalaprilat
  Basal heart rate after pre-treatment: 417 ± 13^*
Male Sprague-Dawley rats; pyrilamine 5 mg/kg i.v.
  effect of pretreatment on hypotensive effect of MK: not significantly potentiated

## CC(=O)N[C@@H](CC(C)C)C(=O)N[C@@H](CC(C)C)C(=O)N[C@H](C=O)CCCNC(=N)N [leupeptin]
[1]; inhibitor 30 min before MK
  effect of protease/peptidase inhibitor on contractile potency of MK: The same applied

## O=C(N[C@H]1CCS[C@H]2CCC[C@@H](C(=O)O)N2C1=O)[C@@H](S)Cc1ccccc1 [omapatrilat]
[1]; inhibitor 30 min before MK
  effect of protease/peptidase inhibitor on contractile potency of MK: failed to modify the contractile effect of MK

## Cl.NCCc1ccc(S(=O)(=O)F)cc1 [pefabloc SC]
[1]; inhibitor 30 min before MK
  effect of protease/peptidase inhibitor on contractile potency of MK: failed to change the concentration-effect curve of MK

## COc1ccc(CN(CCN(C)C)c2ccccn2)cc1 [pyrilamine]
[1]; antagonist 1 µM, 30 min before MK
  effect of receptor antagonist on MK-induced contraction: did not reduce the venous effect of MK
[1]; antagonist 1 µM, 30 min before histamine
  effect of antagonist on histamine-induced contraction: profoundly and competitively inhibiting
Male Sprague-Dawley rats
  Basal mean arterial blood pressure after pre-treatment: 87.4 ± 2.7
  Basal heart rate after pre-treatment: 335 ± 6.1
Male Sprague-Dawley rats; pyrilamine 5 mg/kg i.v.
  effect of pretreatment on hypotensive effect of MK: did not antagonize the effects of MK
Male Sprague-Dawley rats; pyrilamine 5 mg/kg i.v., histamine 6.4 µg/kg i.v.
  effect of pretreatment on hypotensive effect of histamine: abated the hypotensive effect of histamine

## DLPKINRKGPRPP [N-terminal fragment of MK]
[2]
  fragment generated from MK: Abundant

## DLPKINRKGPRPPGF [N-terminal fragment of MK]
[2]
  fragment generated from MK: Abundant
